Residues, ends and D or L forms follow the SMILES beside them. *: point of attachment. Cbz = O=C(OCc1ccccc1)*

Experiment [1] deals with HA-ANKRD16^CAST-transfected COS-7 cells. Put plainly: subcellular localization of ANKRD16 in transfected COS-7 cells. Format: cell-based, monkey. The settings on record: for relocalization of ANKRD16: 10 μM MG132 or 10 μM epoximicin or 3-MA, 24 hours after transfection, within 12 hours of treatment. The procedure:
Cellular localization of full-length ANKRD16 was determined by transfection of epitope-tagged full-length ANKRD16^CAST into monkey kidney fibroblast COS-7 cells and human alveolar epithelial A549 cells. The ANKRD16 coding sequence was amplified by polymerase chain reaction from cDNA by using Pfu DNA polymerase (Stratagene), purified by agarose gel electrophoresis and ligated in-frame with the HA-tag into the pcDNA3 vector. This clone encoded a fusion ANKRD16 with the tag at its C-terminus. All DNA constructs were confirmed by sequencing. COS-7 and A549 cells were maintained in Dulbecco's modified Eagle's medium (Sigma-Aldrich). All cells were grown at 37° C. in 5% CO2 and supplemented with 10% (vol/vol) fetal calf serum, 100 U/ml penicillin and 100 μg/ml streptomycin. Transfections were performed using Lipofectamine 2000 transfection reagent (Invitrogen, USA) according to the manufacturer's protocol. Cells were cultured for 48 h after transfection.
To determine if the induction of autophagy changes the intracellular localization of ANKRD16, we treated transfected cells with rapamycin to induce macroautophagy (data not shown) or performed serum starvation experiments (known to induce chaperone-mediated autophagy after 18 hours) on transfected cells (data not shown). COS-7 cells were transfected with full-length HA-ANKRD16^CAST constructs. […] Nor was co-localization observed with endosome, autophagosome or lysosome markers (data not shown) in the presence or absence of rapamycin or proteasome inhibitors administered as described below.
Several proteins that regulate protein folding and/or the disposal of misfolded proteins are induced or change their subcellular localization in response to misfolded protein stress. To examine if subcellular localization changes with intracellular accumulation of misfolded proteins, we treated full-length HA-ANKRD16^CAST-transfected COS-7 cells 24 hours after transfection with proteosome inhibitors, 10 μM MG132 (Sigma-Aldrich) or 10 μM epoximicin (Sigma-Aldrich) or blocked autophagy with 3-methyladenine (3-MA; Sigma-Aldrich). […]
For immunostaining the cells were fixed with 4% paraformaldehyde (PFA) at room temperature for 5 min, then incubated with anti-ubiquitin, anti-HA, anti-r-tubulin, and anti-vimentin antibodies overnight at 4° C. […] The fluorescence was detected under a fluorescence microscope.

Experiment [2] has as its system mouse embryonic fibroblasts from CASTEi/J mice. Put plainly: aggresome localization of ANKRD16 in fibroblasts under proteasomal stress. Particulars: 1 μM epoximicin for 18 hours. Format: cell-based. The procedure: Mouse embryonic fibroblasts were isolated from CASTEi/J mice. To isolate embryonic fibroblasts, CASTEi/J mice were paired for time of pregnancy. E13.5 day pregnant female mice for each of the strains were sacrificed. The time point E0.5 is the morning of finding a plug after pairing a female with a male. The uteri were removed and placed into a dish with PBS and washed. The embryos were isolated free of extraembryonic tissue and washed in PBS. Each embryo was placed into a separate 14 ml tube containing 3 ml of media (DMEM, 10% FBS) and homogenized for 2 seconds. The homogenized tissues were put into 145 mm tissue culture plates (e.g. CellStar from USA Scientific cat.#5663-9160) containing 20 ml of media (DMEM, 10% FBS). The cells were incubated at 37° C. in 5% CO2 until cells were confluent, which was on average from 5 to 7 days. The cells were expanded according to standard tissue culture methods using trypsin and the same passage number for each cell line was used for the experiment. To stress the fibroblast they were treated for 18 hours with 1 μM epoximicin, a proteosome inhibitor (Genaxxon). Then untreated and treated cells were fixed, visualized for ANKRD16 expression using indirect immunofluorescence with polyclonal ANKRD16 rabbit antibody as primary antibody and Alexa555-conjugated anti-rabbit IgG (Invitrogen, Molecular Probes) as secondary antibody. […]

Turning to `Cn1cnc(N)c2ncnc1-2` [3-methyladenine], the “relocalization of ANKRD16” value in experiment [1] was “Relocalization of ANKRD16 to a juxtanuclear structure”. Take `CC(C)C[C@@H](C=O)NC(=O)[C@H](CC(C)C)NC(=O)[C@H](CC(C)C)NC(=O)OCc1ccccc1` [MG132] (Cbz-Leu-Leu-Leu-aldehyde): the “relocalization of ANKRD16” value in experiment [1] is “Relocalization of ANKRD16 to a juxtanuclear structure”. Take `CC[C@H](C)[C@H](NC(=O)[C@H]([C@@H](C)CC)N(C)C(C)=O)C(=O)N[C@H](C(=O)N[C@@H](CC(C)C)C(=O)[C@@]1(C)CO1)[C@@H](C)O` [epoximicin]: the “localization of ANKRD16” value in experiment [2] was “relocalized to the aggresome”. Also, in experiment [1], the “relocalization of ANKRD16” value was “Relocalization of ANKRD16 to a juxtanuclear structure”. For `COC(=O)Nc1nc2ccc(C(=O)c3cccs3)cc2[nH]1` [nocodazole], the “formation of the aggresome structure” value in experiment [1] (10 μg/ml nocodazole) is listed as “disrupted”.

(Values after patent publication US20100168016A1, “DIAGNOSIS AND TREATMENT OF DISEASES CAUSED BY MISFOLDED PROTEINS” (THE JACKSON LABORATORY, priority 2007, published 2010).)
